Results published in patent US10463710B2, “Short synthetic peptide for the treatment and/or prophylaxis of autoimmune and inflammatory disorders” (MacKay Memorial Hospital, priority 2015, dated 2019).

Key:
in vitro = assay type: cell-based, murine; details: mouse
[1] = tested on: HOCl-induced skin fibrosis; assay: Mouse model of HOCl-induced systemic sclerosis (skin fibrosis); assay type: in vivo, BALB/c mice
Description: Induction of SSc have been successfully established by subcutaneously injection with prooxidative agents (e.g., hypochlorous acid, HOCl) in BALB/c mice every day for 6 weeks (Servettaz A et al., J Immuno. 2009; 182: 5855).
To produce HOCl, 166 μl of NaClO solution (2.6% as active chlorine) was added to 11.1 ml of KH2PO4 solution (100 mM; pH 7.2). The concentration of HOCl was determined by spectrophotometry at 292 nm (molar absorption coefficient 350 M^−1 cm^−1). Female BALB/c mice (6 weeks old) were randomly distributed into experimental and control groups (n=6 per group). A total of 100 μl of HOCl solution mixed with 7-mer vehicle or 7-mer (final concentration 0.2 mM) was injected subcutaneously into the shaved back of the mice, using a 27-gauge needle, every day for 6 wks. Subcutaneous injection of phosphate-buffered saline (PBS) was served as normal control. Mice were euthanized and their skins were harvested, fixed overnight in 4% paraformaldehyde and embedded in paraffin. […]
Approximately 20% skin homogenate was used to determine the levels of soluble collagen. The collagen levels were quantified using a Sircol™ soluble collagen assay (Biocolor Ltd., Newtownabbey) according to the manufacturer's protocols. […] Relative absorbance was measured at 540 nm. […]

LPS-induced arthritis = assay: Rat model of LPS-induced arthritis; assay type: in vivo, Sprague-Dawley rats; details: 7-mer 1 mM intraarticular along with LPS, 3 days, FIG. 4
Description: In this study, acute arthritis was induced by direct injection of lipopolysaccharide (LPS) into rat joints in accordance with the procedures described by Pan R Y et al (J Virol. (1999) 73, 3410-3417). Briefly, adult (about 10 weeks old) male Sprague-Dawley rats (initial body wt=312±11 g) were anesthetized by an intraperitoneal injection of a Xylazine (10 mg/kg) and then randomly assigned to experimental groups; their right knees were later treated with a single intraarticular injection of 25 μl of 5% hyaluronic acid (HA) containing LPS (2 μg and 10 μg) or LPS+7-mer. 7-mer (10 mM stock) was dissolved in 25 μl of 5% HA to final concentration 1 mM. On day 2, the group LPS+7-mer or LPS+7-mer analogue was further treated with 7-mer by a single intraarticular is injection. On day 3, the knee joints were dissected and fixed in a 4% paraformaldehyde (PFA) solution and then decalcified with Shandon TBD-2 decalcifier (Thermo Scientific, Logan, Utah). The joints were then sectioned mid-sagittally and embedded in paraffin blocks. Sections (5 μm in thickness) were longitudinally cut, and stained with hematoxylin and eosin (H&E).
Rheumatoid arthritis (RA) is a chronic inflammatory disease characterized by an inflammation of the synovium leading to the destruction of joint cartilage and eventually the destruction of joint function. […]

[2] = tested on: OVA-induced allergic asthma; assay: Mouse model of OVA-induced allergic asthma; assay type: in vivo, BALB/c mice; details: 7-mer 100 μM intranasal twice a day, vs OVA challenged mice, FIG. 6B
Description: BALB/c mice (4- to 5-weeks old females) were sensitized intraperitoneally with 1 μg of ovalbumin (OVA) and 200 μl of 1.5% aluminum hydroxide on days 0 and 7, respectively; and then challenged three times by intranasal injection with 250 μg of OVA on days 21, 22 and 23. Control mice were given OVA with ALUM in sensitization stages, and PBS in place of OVA in challenge stages. For treatment, 7-mer analogue was mixed with 1% CMC eye drop to a concentration 100 μM. On day 20 and after the OVA challenge (day 21), the mice were randomly assigned to two experimental groups (n=6 per group) is and the nasal was injected with 20 μl of 7-mer or vehicle drop twice a day for 4 days (to day 23). Twenty-four hrs after the final challenge with OVA (day 24), mice were euthanized and their eyes were harvested, fixed overnight in 4% paraformaldehyde and embedded in paraffin.
In this example, we investigate the efficacy of the present synthetic peptide on allergic asthma by use of the well-characterized murine model of allergic airway disease, employing ovalbumin as the antigen. The experimental murine asthma model was established in accordance with the procedures described in the section of “Materials and Methods,” and as depicted in panel A of FIG. 6.

## CC(=O)N[C@@H](CC(=O)O)C(=O)N[C@@H](CC(C)C)C(=O)N[C@@H](Cc1ccc(O)cc1)C(=O)N[C@@H](CCCNC(=N)N)C(=O)N[C@H](C(=O)N[C@@H](CCCNC(=N)N)C(=O)N[C@@H](CO)C(N)=O)C(C)C [7-mer, NH2-Asp-Leu-Tyr-Arg-Val-Arg-Ser-COOH]
In vitro; Rar264.7 cell viability
  viability at 24 h, 20 μM: 55 ± 3.66%
In vitro; Raw264.7 cell viability
  viability at 24 h, 20 μM: 55.7 ± 4.24%
[1]; 7-mer 0.2 mM s.c. with HOCl daily for 6 wks, vs HOCl/vehicle, FIG. 3A
  level of dermal collagen (Masson's trichrome): significant decrease
[1]; 7-mer treated SSc mice, HOCl-treated SSc mice 169.9±7.75, FIG. 3B
  collagen content of skin: 99.0±5.43 μg collagen/mg skin
LPS-induced arthritis
  inflammation in the knee (synoviocyte proliferation, leukocyte infiltration, H&E): significantly attenuated
[2]
  inflammatory cell infiltration (peribronchial, perivascular; H&E): significantly reduced
  mucus secretion (PAS staining): markedly reduced
